Assay results from PubChem BioAssay AID330 (DTP/NCI, 2004).
Values joined by “and” are separate entries in the source; they are usually repeats but may differ in a detail not shown here. Identical values can stand only once. Toxic doses and inconclusive results are not listed.

Test system: P388 leukemia ip, CD2F1 mice, survival T/C
Experiment: NCI In Vivo Anticancer Drug Screen. Data for tumor model P388 Leukemia (intraperitoneal) in CD2F1 (CDF1) mice
Conditions: endpoint: median survival time, higher = longer survival
Procedure, shortened: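 Mice carrying the transplanted tumor received test compound or vehicle. Survival was recorded in each group, and the value is the treated-group measurement divided by that of the vehicle-treated control group.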

[1] = dose: 50.0 mg/kg/injection, schedule: Q01DX009 (ip), vehicle: saline with Tween-80
[2] = dose: 25.0 mg/kg/injection, schedule: Q01DX009 (ip), vehicle: water
[3] = dose: 200.0 mg/kg/injection, schedule: Q01DX009 (ip), vehicle: water

CN=C(N)N/N=C(\c1ccccc1)c1cc(Cl)c(O)c(Cl)c1
T/C (dose: 25.0 mg/kg/injection, schedule: Q04DX002 (ip), vehicle: saline with Tween-80): 101 % of control
T/C (dose: 50.0 mg/kg/injection, schedule: Q04DX002 (ip), vehicle: saline with Tween-80): 100 % of control
T/C (dose: 100.0 mg/kg/injection, schedule: Q04DX002 (ip), vehicle: saline with Tween-80): 100 % of control
T/C (dose: 200.0 mg/kg/injection, schedule: Q04DX002 (ip), vehicle: saline with Tween-80): 104 % of control
T/C (dose: 400.0 mg/kg/injection, schedule: Q04DX002 (ip), vehicle: saline with Tween-80): 103 % of control

NCC[Se]CC(N)C(=O)O (stereo not given)
T/C (dose: 6.25 mg/kg/injection, schedule: Q01DX009 (ip), vehicle: saline): 101 % of control
T/C (dose: 12.5 mg/kg/injection, schedule: Q01DX009 (ip), vehicle: saline): 100 % of control
T/C (dose: 25.0 mg/kg/injection, schedule: Q01DX009 (ip), vehicle: saline): 101 % of control

O=[N+]([O-])c1ccc(SCN2CCCCC2)cc1
T/C [1]: 104 % of control
T/C (dose: 100.0 mg/kg/injection, schedule: Q01DX009 (ip), vehicle: saline with Tween-80): 104 % of control
T/C (dose: 200.0 mg/kg/injection, schedule: Q01DX009 (ip), vehicle: saline with Tween-80): 118 % of control

Cc1cccnc1Br
T/C [2]: 96 % of control
T/C [3]: 89 % of control

CC(C)N(CCCO)CCCO
T/C (dose: 50.0 mg/kg/injection, schedule: Q01DX009 (ip), vehicle: saline): 97 % of control
T/C (dose: 100.0 mg/kg/injection, schedule: Q01DX009 (ip), vehicle: saline): 93 % of control
T/C (dose: 200.0 mg/kg/injection, schedule: Q01DX009 (ip), vehicle: saline): 102 % of control

CCCCCCCCCCCC(=O)NCC(=O)NC1C(CO)OC(Nc2ncnc3nc[nH]c23)C(O)C1O (stereo not given)
T/C (dose: 0.06 mg/kg/injection, schedule: Q01DX009 (ip), vehicle: water): 93 % of control
T/C (dose: 0.12 mg/kg/injection, schedule: Q01DX009 (ip), vehicle: water): 101 % of control
T/C (dose: 0.13 mg/kg/injection, schedule: Q01DX009 (ip), vehicle: other): 103 % of control
T/C (dose: 0.25 mg/kg/injection, schedule: Q01DX009 (ip), vehicle: other): 113 % of control
T/C (dose: 0.25 mg/kg/injection, schedule: Q01DX009 (ip), vehicle: water): 99 % of control
T/C (dose: 0.5 mg/kg/injection, schedule: Q01DX009 (ip), vehicle: other): 121 % of control
T/C (dose: 0.5 mg/kg/injection, schedule: Q01DX009 (ip), vehicle: water): 99 % of control
T/C (dose: 1.0 mg/kg/injection, schedule: Q01DX009 (ip), vehicle: water): 105 % of control
T/C (dose: 2.0 mg/kg/injection, schedule: Q01DX009 (ip), vehicle: other): 100 % of control and 86 % of control
T/C (dose: 2.0 mg/kg/injection, schedule: Q01DX009 (ip), vehicle: water): 124 % of control

Cc1ccc(S(=O)(=O)N/N=C/c2ccc(O)c(S(=O)(=O)O)c2)cc1
T/C (dose: 12.5 mg/kg/injection, schedule: Q01DX009 (ip), vehicle: water): 97 % of control
T/C [2]: 101 % of control
T/C (dose: 50.0 mg/kg/injection, schedule: Q01DX009 (ip), vehicle: water): 101 % of control
T/C (dose: 100.0 mg/kg/injection, schedule: Q01DX009 (ip), vehicle: water): 110 % of control
T/C [3]: 99 % of control

O=NN(CCCl)C(=O)N(CCCl)C(=O)Oc1c(Cl)cc(Cl)cc1Cl
T/C (dose: 25.0 mg/kg/injection, schedule: Q01DX001 (ip), vehicle: saline with Tween-80): 122 % of control
T/C (dose: 100.0 mg/kg/injection, schedule: Q01DX001 (ip), vehicle: saline with Tween-80): 150 % of control
T/C (dose: 200.0 mg/kg/injection, schedule: Q01DX001 (ip), vehicle: saline with Tween-80): 179 % of control and 193 % of control
T/C (dose: 400.0 mg/kg/injection, schedule: Q01DX001 (ip), vehicle: saline with Tween-80): 199 % of control

C/C=C1/CN2CCC34c5ccccc5N(C)C23C(OC(C)=O)CC1C4(CO)C(=O)OC (stereo not given)
T/C (dose: 2.25 mg/kg/injection, schedule: Q01DX005 (ip), vehicle: saline + Tween-80 + alcohol): 120 % of control
T/C (dose: 4.5 mg/kg/injection, schedule: Q01DX005 (ip), vehicle: saline + Tween-80 + alcohol): 103 % of control
T/C (dose: 9.0 mg/kg/injection, schedule: Q01DX005 (ip), vehicle: saline + Tween-80 + alcohol): 106 % of control
T/C (dose: 18.0 mg/kg/injection, schedule: Q01DX005 (ip), vehicle: saline + Tween-80 + alcohol): 104 % of control

O=C1CCCC2C3CCCN4CCCC(CN12)C34 (stereo not given)
T/C (dose: 3.12 mg/kg/injection, schedule: Q01DX007 (ip), vehicle: carboxymethylcellulose (CMC)): 100 % of control
T/C (dose: 5.0 mg/kg/injection, schedule: Q01DX009 (ip), vehicle: saline): 98 % of control
T/C (dose: 6.2 mg/kg/injection, schedule: Q01DX007 (ip), vehicle: carboxymethylcellulose (CMC)): 100 % of control
T/C (dose: 6.25 mg/kg/injection, schedule: Q01DX007 (ip), vehicle: carboxymethylcellulose (CMC)): 100 % of control
T/C (dose: 10.0 mg/kg/injection, schedule: Q01DX009 (ip), vehicle: saline): 100 % of control and 94 % of control
T/C (dose: 12.5 mg/kg/injection, schedule: Q01DX007 (ip), vehicle: carboxymethylcellulose (CMC)): 91 % of control
T/C (dose: 20.0 mg/kg/injection, schedule: Q01DX009 (ip), vehicle: saline): 100 % of control and 110 % of control and 95 % of control
T/C (dose: 23.0 mg/kg/injection, schedule: Q01DX007 (ip), vehicle: carboxymethylcellulose (CMC)): 100 % of control
T/C (dose: 25.0 mg/kg/injection, schedule: Q01DX007 (ip), vehicle: carboxymethylcellulose (CMC)): 91 % of control
T/C (dose: 40.0 mg/kg/injection, schedule: Q01DX009 (ip), vehicle: saline): 102 % of control and 117 % of control and 95 % of control
T/C (dose: 80.0 mg/kg/injection, schedule: Q01DX009 (ip), vehicle: saline): 98 % of control and 110 % of control and 122 % of control
T/C (dose: 160.0 mg/kg/injection, schedule: Q01DX009 (ip), vehicle: saline): 102 % of control and 119 % of control

CCOC(=O)CSc1nnc(-c2cc(OC)c(OCC)c(OC)c2)o1
T/C (dose: 62.5 mg/kg/injection, schedule: Q01DX001 (ip), vehicle: Klucel (hydroxypropylcellulose) (HPC)): 102 % of control
T/C (dose: 125.0 mg/kg/injection, schedule: Q01DX001 (ip), vehicle: Klucel (hydroxypropylcellulose) (HPC)): 102 % of control
T/C (dose: 250.0 mg/kg/injection, schedule: Q01DX001 (ip), vehicle: Klucel (hydroxypropylcellulose) (HPC)): 100 % of control

c1ccc(C2=NCCN=C2c2ccccc2)cc1
T/C (dose: 100.0 mg/kg/injection, schedule: Q01DX001 (ip), vehicle: Klucel (hydroxypropylcellulose) (HPC)): 94 % of control
T/C (dose: 200.0 mg/kg/injection, schedule: Q01DX001 (ip), vehicle: Klucel (hydroxypropylcellulose) (HPC)): 99 % of control
T/C (dose: 400.0 mg/kg/injection, schedule: Q01DX001 (ip), vehicle: Klucel (hydroxypropylcellulose) (HPC)): 93 % of control

CN(C)c1ccc(/C=N\N=C/c2ccc(N(C)C)cc2)cc1
T/C (dose: 60.0 mg/kg/injection, schedule: Q01DX005 (ip), vehicle: Klucel (hydroxypropylcellulose) (HPC)): 88 % of control
T/C (dose: 120.0 mg/kg/injection, schedule: Q01DX005 (ip), vehicle: Klucel (hydroxypropylcellulose) (HPC)): 87 % of control
T/C (dose: 240.0 mg/kg/injection, schedule: Q01DX005 (ip), vehicle: Klucel (hydroxypropylcellulose) (HPC)): 86 % of control

CN1C2CCC1C(CO)C(O)C2 (stereo not given)
T/C (dose: 50.0 mg/kg/injection, schedule: Q01DX005 (ip), vehicle: saline): 98 % of control
T/C (dose: 100.0 mg/kg/injection, schedule: Q01DX005 (ip), vehicle: saline): 103 % of control
T/C (dose: 200.0 mg/kg/injection, schedule: Q01DX005 (ip), vehicle: saline): 107 % of control

Clc1ccccc1-n1cccc1/C=N\N=C/c1cccn1-c1ccccc1Cl
T/C (dose: 50.0 mg/kg/injection, schedule: Q01DX005 (ip), vehicle: saline with Tween-80): 107 % of control
T/C (dose: 100.0 mg/kg/injection, schedule: Q01DX005 (ip), vehicle: saline with Tween-80): 110 % of control and 86 % of control
T/C (dose: 200.0 mg/kg/injection, schedule: Q01DX005 (ip), vehicle: saline with Tween-80): 121 % of control and 86 % of control and 90 % of control

CN(C)C(=S)SCN1CCCCC1
T/C (dose: 6.25 mg/kg/injection, schedule: Q01DX009 (ip), vehicle: saline with Tween-80): 100 % of control
T/C (dose: 12.5 mg/kg/injection, schedule: Q01DX009 (ip), vehicle: saline with Tween-80): 101 % of control
T/C (dose: 25.0 mg/kg/injection, schedule: Q01DX009 (ip), vehicle: saline with Tween-80): 100 % of control
T/C [1]: 95 % of control

CS/C(=C1/C(=O)N(c2ccccc2)N=C1c1ccc(Cl)cc1)N1CC1
T/C (dose: 25.0 mg/kg/injection, schedule: Q04DX003 (ip), vehicle: Klucel (hydroxypropylcellulose) (HPC)): 96 % of control
T/C (dose: 50.0 mg/kg/injection, schedule: Q04DX003 (ip), vehicle: Klucel (hydroxypropylcellulose) (HPC)): 99 % of control
T/C (dose: 100.0 mg/kg/injection, schedule: Q04DX003 (ip), vehicle: Klucel (hydroxypropylcellulose) (HPC)): 99 % of control
T/C (dose: 200.0 mg/kg/injection, schedule: Q04DX003 (ip), vehicle: Klucel (hydroxypropylcellulose) (HPC)): 99 % of control
T/C (dose: 400.0 mg/kg/injection, schedule: Q04DX003 (ip), vehicle: Klucel (hydroxypropylcellulose) (HPC)): 91 % of control
